Test results as given in the kinase profiling compilation of Christmann-Franck et al. (2016).

Legend:
Assay in all cases: KINOMEscan competition binding
Details in all cases: compound 10.0 µM
MAP3K3 (human) = MAP3K3 (human) (UniProt Q99759)
WEE2 (human) = WEE2 (human) (UniProt P0C1S8)
TSSK1B (human) = TSSK1B (human) (UniProt Q9BXA7)
PLK3 (human) = PLK3 (human) (UniProt Q9H4B4)
BRSK2 (human) = BRSK2 (human) (UniProt Q8IWQ3)
AURKC (human) = AURKC (human) (UniProt Q9UQB9)
CAMK4 (human) = CAMK4 (human) (UniProt Q16566)
CSNK1E (human) = CSNK1E (human) (UniProt P49674)
MAPK11 (human) = MAPK11 (human) (UniProt Q15759)
CIT (human) = CIT (human) (UniProt O14578)
BLK (human) = BLK (human) (UniProt P51451)
MAP4K5 (human) = MAP4K5 (human) (UniProt Q9Y4K4)
CaMK1 (human) = CaMK1 (human) (UniProt Q14012)
EPHA7 (human) = EPHA7 (human) (UniProt Q15375)
ABL2 (human) = ABL2 (human) (UniProt P42684)
MAP3K4 (human) = MAP3K4 (human) (UniProt Q9Y6R4)
MAP3K4 (human), sequence (Q9Y6R4 whole entry, looked up): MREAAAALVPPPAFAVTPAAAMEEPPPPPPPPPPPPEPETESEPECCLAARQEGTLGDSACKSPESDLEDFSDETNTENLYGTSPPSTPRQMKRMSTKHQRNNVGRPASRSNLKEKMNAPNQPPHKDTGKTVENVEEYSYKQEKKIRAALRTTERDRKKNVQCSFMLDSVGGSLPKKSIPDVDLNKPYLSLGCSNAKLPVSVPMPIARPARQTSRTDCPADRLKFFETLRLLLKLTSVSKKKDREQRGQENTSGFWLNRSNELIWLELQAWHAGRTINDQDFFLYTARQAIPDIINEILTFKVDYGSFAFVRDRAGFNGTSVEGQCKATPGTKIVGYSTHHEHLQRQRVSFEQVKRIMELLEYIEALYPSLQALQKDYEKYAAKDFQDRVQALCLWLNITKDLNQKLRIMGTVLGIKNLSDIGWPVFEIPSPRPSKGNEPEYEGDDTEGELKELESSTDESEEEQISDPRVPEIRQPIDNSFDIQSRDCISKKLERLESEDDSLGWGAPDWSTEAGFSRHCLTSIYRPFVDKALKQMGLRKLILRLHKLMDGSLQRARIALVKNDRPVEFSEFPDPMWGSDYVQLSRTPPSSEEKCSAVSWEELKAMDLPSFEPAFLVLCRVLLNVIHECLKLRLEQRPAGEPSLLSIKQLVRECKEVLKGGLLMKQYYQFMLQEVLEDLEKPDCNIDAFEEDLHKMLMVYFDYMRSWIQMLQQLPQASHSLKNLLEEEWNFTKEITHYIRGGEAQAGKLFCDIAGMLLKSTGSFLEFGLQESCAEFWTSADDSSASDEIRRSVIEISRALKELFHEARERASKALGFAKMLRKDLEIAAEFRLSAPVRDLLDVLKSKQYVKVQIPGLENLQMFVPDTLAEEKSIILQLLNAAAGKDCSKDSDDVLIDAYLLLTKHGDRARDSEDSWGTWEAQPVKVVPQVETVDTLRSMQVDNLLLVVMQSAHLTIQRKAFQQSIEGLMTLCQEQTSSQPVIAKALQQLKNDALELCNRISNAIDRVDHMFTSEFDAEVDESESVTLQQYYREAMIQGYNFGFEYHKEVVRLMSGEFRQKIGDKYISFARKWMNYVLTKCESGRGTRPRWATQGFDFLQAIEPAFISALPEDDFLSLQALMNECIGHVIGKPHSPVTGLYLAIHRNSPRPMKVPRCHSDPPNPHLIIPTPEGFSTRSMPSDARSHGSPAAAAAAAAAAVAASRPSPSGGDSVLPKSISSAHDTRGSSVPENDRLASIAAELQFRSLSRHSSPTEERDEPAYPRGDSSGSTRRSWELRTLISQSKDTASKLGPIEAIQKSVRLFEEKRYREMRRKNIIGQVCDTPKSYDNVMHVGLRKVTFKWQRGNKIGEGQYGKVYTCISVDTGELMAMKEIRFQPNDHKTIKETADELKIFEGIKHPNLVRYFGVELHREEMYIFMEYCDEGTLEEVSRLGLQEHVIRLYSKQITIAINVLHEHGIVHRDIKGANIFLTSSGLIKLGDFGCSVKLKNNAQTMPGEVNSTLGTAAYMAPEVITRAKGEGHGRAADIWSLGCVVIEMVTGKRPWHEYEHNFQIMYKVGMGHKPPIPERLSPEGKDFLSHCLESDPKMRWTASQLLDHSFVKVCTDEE

MYLK (human) = MYLK (human) (UniProt Q15746)
TNNI3K (human) = TNNI3K (human) (UniProt Q59H18)
PTK2B (human) = PTK2B (human) (UniProt Q14289)
CAMK1G (human) = CAMK1G (human) (UniProt Q96NX5)
CSNK1G3 (human) = CSNK1G3 (human) (UniProt Q9Y6M4)
NEK5 (human) = NEK5 (human) (UniProt Q6P3R8)
NEK5 (human), sequence (Q6P3R8 whole entry, looked up): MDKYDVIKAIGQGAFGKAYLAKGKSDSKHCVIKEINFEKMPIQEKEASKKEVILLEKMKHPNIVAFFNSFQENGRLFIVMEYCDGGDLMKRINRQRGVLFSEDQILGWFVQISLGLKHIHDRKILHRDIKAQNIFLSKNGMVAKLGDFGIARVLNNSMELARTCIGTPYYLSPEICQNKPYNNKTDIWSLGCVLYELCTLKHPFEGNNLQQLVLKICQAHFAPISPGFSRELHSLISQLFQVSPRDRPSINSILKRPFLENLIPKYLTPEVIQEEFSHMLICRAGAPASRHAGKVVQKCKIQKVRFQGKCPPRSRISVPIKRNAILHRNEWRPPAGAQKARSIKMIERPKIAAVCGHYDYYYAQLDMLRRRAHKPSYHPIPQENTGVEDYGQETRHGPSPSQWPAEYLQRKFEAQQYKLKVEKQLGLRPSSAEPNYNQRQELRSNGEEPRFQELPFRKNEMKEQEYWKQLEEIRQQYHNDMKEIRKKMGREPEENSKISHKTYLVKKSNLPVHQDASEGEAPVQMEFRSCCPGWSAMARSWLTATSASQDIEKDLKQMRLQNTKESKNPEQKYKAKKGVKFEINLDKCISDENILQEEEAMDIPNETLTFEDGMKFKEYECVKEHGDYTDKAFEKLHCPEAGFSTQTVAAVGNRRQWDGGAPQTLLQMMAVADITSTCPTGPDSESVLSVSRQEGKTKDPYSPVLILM

ANKK1 (human) = ANKK1 (human) (UniProt Q8NFD2)
ANKK1 (human), sequence (Q8NFD2 whole entry, looked up): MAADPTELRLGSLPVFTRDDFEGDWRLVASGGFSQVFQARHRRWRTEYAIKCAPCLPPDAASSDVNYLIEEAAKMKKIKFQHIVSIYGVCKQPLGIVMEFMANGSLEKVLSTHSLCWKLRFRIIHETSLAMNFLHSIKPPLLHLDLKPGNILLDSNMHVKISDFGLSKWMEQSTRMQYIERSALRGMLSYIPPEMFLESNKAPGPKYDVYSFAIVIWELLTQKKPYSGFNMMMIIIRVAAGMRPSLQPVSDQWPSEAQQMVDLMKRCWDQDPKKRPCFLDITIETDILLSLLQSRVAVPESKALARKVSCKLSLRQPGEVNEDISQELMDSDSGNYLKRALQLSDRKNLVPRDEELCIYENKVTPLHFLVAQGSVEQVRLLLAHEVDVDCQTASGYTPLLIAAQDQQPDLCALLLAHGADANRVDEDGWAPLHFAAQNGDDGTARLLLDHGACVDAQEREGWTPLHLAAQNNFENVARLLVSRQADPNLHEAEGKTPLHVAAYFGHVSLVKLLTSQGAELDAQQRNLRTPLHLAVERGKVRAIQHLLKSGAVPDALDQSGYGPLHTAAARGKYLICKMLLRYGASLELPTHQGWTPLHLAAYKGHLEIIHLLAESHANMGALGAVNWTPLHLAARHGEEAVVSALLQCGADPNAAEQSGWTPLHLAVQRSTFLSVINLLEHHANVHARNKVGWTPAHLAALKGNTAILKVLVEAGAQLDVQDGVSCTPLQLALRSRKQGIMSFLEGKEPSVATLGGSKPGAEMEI

TNIK (human) = TNIK (human) (UniProt Q9UKE5)
CDK14 (human) = CDK14 (human) (UniProt O94921)
MELK (human) = MELK (human) (UniProt Q14680)
MELK (human), sequence (Q14680 whole entry, looked up): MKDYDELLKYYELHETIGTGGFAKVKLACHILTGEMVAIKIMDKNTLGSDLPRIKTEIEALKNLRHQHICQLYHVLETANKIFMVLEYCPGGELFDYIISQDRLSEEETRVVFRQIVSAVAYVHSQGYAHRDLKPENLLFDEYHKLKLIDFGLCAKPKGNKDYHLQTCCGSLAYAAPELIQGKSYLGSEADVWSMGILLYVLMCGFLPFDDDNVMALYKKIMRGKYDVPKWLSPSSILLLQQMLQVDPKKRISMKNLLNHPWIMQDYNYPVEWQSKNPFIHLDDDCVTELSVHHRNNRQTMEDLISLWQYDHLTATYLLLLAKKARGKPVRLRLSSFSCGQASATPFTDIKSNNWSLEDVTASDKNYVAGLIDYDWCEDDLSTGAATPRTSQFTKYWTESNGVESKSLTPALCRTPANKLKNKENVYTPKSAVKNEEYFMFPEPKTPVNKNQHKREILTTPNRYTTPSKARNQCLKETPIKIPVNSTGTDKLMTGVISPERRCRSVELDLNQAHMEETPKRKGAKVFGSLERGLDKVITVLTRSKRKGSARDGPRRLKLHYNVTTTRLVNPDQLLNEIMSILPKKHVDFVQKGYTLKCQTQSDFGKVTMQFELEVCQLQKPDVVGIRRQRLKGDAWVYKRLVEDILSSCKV

PDPK1 (human) = PDPK1 (human) (UniProt O15530)
DAPK3 (human) = DAPK3 (human) (UniProt O43293)
TLK1 (human) = TLK1 (human) (UniProt Q9UKI8)
NUAK2 (human) = NUAK2 (human) (UniProt Q9H093)
[1] = tested on: FLT3 (human), P36888 [N841I]
NTRK1 (human) = NTRK1 (human) (UniProt P04629)
PKN1 (human) = PKN1 (human) (UniProt Q16512)
PRKCD (human) = PRKCD (human) (UniProt Q05655)
PTK6 (human) = PTK6 (human) (UniProt Q13882)
[2] = tested on: EIF2AK4 KD2 (human), Q9P2K8 [S808G]
STK35 (human) = STK35 (human) (UniProt Q8TDR2)
TNK1 (human) = TNK1 (human) (UniProt Q13470)
TNK1 (human), sequence (Q13470 whole entry, looked up): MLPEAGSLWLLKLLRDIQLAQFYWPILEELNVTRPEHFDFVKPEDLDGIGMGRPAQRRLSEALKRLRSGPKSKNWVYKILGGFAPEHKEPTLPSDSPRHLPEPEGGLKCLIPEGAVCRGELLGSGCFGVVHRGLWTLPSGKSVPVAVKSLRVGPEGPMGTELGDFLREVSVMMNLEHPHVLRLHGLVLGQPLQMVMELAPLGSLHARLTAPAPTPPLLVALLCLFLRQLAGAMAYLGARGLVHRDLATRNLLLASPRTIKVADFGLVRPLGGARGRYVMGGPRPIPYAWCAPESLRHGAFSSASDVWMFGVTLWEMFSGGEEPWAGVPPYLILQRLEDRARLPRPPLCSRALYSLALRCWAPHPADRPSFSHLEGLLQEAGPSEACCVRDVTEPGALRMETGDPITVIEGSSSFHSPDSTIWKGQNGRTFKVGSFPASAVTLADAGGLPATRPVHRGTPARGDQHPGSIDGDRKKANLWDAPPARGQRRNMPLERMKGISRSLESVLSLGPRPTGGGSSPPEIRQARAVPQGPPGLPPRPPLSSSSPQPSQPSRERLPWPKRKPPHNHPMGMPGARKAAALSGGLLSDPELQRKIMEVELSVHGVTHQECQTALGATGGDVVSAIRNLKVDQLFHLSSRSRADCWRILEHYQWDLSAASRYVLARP

PIP4K2B (human) = PIP4K2B (human) (UniProt P78356)
RIOK1 (human) = RIOK1 (human) (UniProt Q9BRS2)

WEE2 (human), sequence (P0C1S8 whole entry, looked up): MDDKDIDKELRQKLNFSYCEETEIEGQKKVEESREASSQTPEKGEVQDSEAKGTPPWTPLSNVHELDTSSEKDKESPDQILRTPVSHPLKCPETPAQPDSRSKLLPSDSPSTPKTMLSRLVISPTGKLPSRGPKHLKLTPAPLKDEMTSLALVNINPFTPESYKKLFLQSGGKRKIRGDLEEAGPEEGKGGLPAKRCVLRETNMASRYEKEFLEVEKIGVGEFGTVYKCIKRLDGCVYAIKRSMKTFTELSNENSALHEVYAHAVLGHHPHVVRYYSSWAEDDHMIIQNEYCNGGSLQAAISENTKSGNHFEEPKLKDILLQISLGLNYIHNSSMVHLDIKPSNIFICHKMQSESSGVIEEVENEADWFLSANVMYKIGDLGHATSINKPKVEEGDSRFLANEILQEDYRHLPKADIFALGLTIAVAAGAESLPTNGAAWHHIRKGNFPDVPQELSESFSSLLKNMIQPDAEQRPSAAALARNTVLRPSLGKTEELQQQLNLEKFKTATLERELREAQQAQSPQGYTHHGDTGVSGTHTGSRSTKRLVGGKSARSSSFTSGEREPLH

| Structure (SMILES) | kinase still bound, per cent of control (MAP3K3 (human)) | kinase still bound, per cent of control (WEE2 (human)) | kinase still bound, per cent of control (TSSK1B (human)) | kinase still bound, per cent of control (PLK3 (human)) | kinase still bound, per cent of control (BRSK2 (human)) | kinase still bound, per cent of control (AURKC (human)) | kinase still bound, per cent of control (CAMK4 (human)) | kinase still bound, per cent of control (CSNK1E (human)) | kinase still bound, per cent of control (MAPK11 (human)) | kinase still bound, per cent of control (CIT (human)) | kinase still bound, per cent of control (BLK (human)) | kinase still bound, per cent of control (MAP4K5 (human)) | kinase still bound, per cent of control (CaMK1 (human)) | kinase still bound, per cent of control (EPHA7 (human)) | kinase still bound, per cent of control (ABL2 (human)) | kinase still bound, per cent of control (MAP3K4 (human)) | kinase still bound, per cent of control (MYLK (human)) | kinase still bound, per cent of control (TNNI3K (human)) | kinase still bound, per cent of control (PTK2B (human)) | kinase still bound, per cent of control (CAMK1G (human)) | also measured |
| --- | --- | --- | --- | --- | --- | --- | --- | --- | --- | --- | --- | --- | --- | --- | --- | --- | --- | --- | --- | --- | --- |
| CCN1CCN(Cc2ccc(Nc3ncc4c(n3)N(C)c3ccccc3C(=O)N4C)cc2C(F)(F)F)CC1 | 0.65% | 64% | 49% | 100% | 42% | 8.7% | 100% | 45% | 82% | 99% | 8.3% | 35% | 78% | 100% | 3% | 81% | 64% | 78% | 96% | 61% | kinase still bound, per cent of control (CSNK1G3 (human)): 5.4%; kinase still bound, per cent of control (NEK5 (human)): 77%; kinase still bound, per cent of control (ANKK1 (human)): 18%; kinase still bound, per cent of control (TNIK (human)): 100%; kinase still bound, per cent of control (CDK14 (human)): 100%; kinase still bound, per cent of control (MELK (human)): 75%; kinase still bound, per cent of control (PDPK1 (human)): 100%; kinase still bound, per cent of control (DAPK3 (human)): 79%; kinase still bound, per cent of control (TLK1 (human)): 74%; kinase still bound, per cent of control (NUAK2 (human)): 6.6%; kinase still bound, per cent of control [1]: 21%; kinase still bound, per cent of control (NTRK1 (human)): 34%; kinase still bound, per cent of control (PKN1 (human)): 76%; kinase still bound, per cent of control (PRKCD (human)): 100%; kinase still bound, per cent of control (PTK6 (human)): 29%; kinase still bound, per cent of control [2]: 88%; kinase still bound, per cent of control (STK35 (human)): 76%; kinase still bound, per cent of control (TNK1 (human)): 0.3%; kinase still bound, per cent of control (PIP4K2B (human)): 31%; kinase still bound, per cent of control (RIOK1 (human)): 33% |
| C=CC(=O)Nc1cccc(Nc2nc(N[C@H]3CC[C@H](N(C)C)CC3)nc3c2ncn3C(C)C)c1 | 2.7% | 100% | 97% | 100% | 100% | 69% | 100% | 0.1% | 89% | 50% | 17% | 60% | 93% | 100% | 94% | 100% | 55% | 62% | 51% | 93% | kinase still bound, per cent of control (CSNK1G3 (human)): 8.2%; kinase still bound, per cent of control (NEK5 (human)): 94%; kinase still bound, per cent of control (ANKK1 (human)): 62%; kinase still bound, per cent of control (TNIK (human)): 35%; kinase still bound, per cent of control (CDK14 (human)): 98%; kinase still bound, per cent of control (MELK (human)): 25%; kinase still bound, per cent of control (PDPK1 (human)): 100%; kinase still bound, per cent of control (DAPK3 (human)): 23%; kinase still bound, per cent of control (TLK1 (human)): 100%; kinase still bound, per cent of control (NUAK2 (human)): 45%; kinase still bound, per cent of control [1]: 0%; kinase still bound, per cent of control (NTRK1 (human)): 15%; kinase still bound, per cent of control (PKN1 (human)): 22%; kinase still bound, per cent of control (PRKCD (human)): 83%; kinase still bound, per cent of control (PTK6 (human)): 100%; kinase still bound, per cent of control [2]: 59%; kinase still bound, per cent of control (STK35 (human)): 80%; kinase still bound, per cent of control (TNK1 (human)): 100%; kinase still bound, per cent of control (PIP4K2B (human)): 54%; kinase still bound, per cent of control (RIOK1 (human)): 31% |
